Laboratory results from patent US12568972B2, “Pyridazinol compounds and derivatives, preparation methods, herbicidal compositions and applications thereof” (Qingdao Kingagroot Chemical Compound Co., Ltd., priority 2018, dated 2026).

Assays:
Assay in all cases: Post-emergence test, weed control effect
Assay type in all cases: in vivo
Conditions in all cases: after 3 weeks
Veronica polita = tested on: Veronica polita
Text: (§1) The activity level standard of harmful plant destruction (i.e. growth inhibition rate) is as follows: • Level 10: completely dead; • Level 9: above 90% growth inhibition rate; • Level 8: above 80% growth inhibition rate; • Level 7: above 70% growth inhibition rate; • Level 6: above 60% growth inhibition rate; • Level 5: above 50% growth inhibition rate; • Level 4: above 40% growth inhibition rate; • Level 3: above 30% growth inhibition rate; • Level 2: above 20% growth inhibition rate; • Level 1: below 20% growth inhibition rate; • Level 0: no effect.
(§2) The above described growth inhibition rates are fresh weight inhibition rates.
(§3) Experiment of post-emergence test: monocotyledonous and dicotyledonous weed seeds as well as main crop seeds (i.e., wheat, corn, rice, soybean, cotton, oilseed rape, millet and sorghum) were put into a plastic pot loaded with soil, then covered with 0.5-2 cm of soil, and the seeds were allowed to grow in good greenhouse environment. The test plants were treated at 2-3 leaf stage 2-3 weeks after sowing. The test compounds of the invention were dissolved in acetone respectively, then added with Tween-80 and diluted by a certain amount of water to give solutions with certain concentrations, and added with 80% vegetable oil methyl ester synergist at 1500 g/ha. The solution was sprayed to the plants with a sprayer. The plants were cultured for 3 weeks in the greenhouse.

Chenopodiaceae = tested on: Chenopodiaceae
Text: as §1, §2, §3

Rorippa indica = tested on: Rorippa indica
Text: as §1, §2, §3

Amaranthus retroflexus = tested on: Amaranthus retroflexus
Text: as §1, §2, §3

CCCCCCCCOC(=O)Oc1cc(C(F)(F)F)nnc1-c1ccc(C(F)(F)F)cc1 [Compound 1-40]
10: weed control effect, Veronica polita (activity level) (Veronica polita; Dose 3000 g/ha) | weed control effect, Chenopodiaceae (activity level) (Chenopodiaceae; Dose 3000 g/ha) | weed control effect, Rorippa indica (activity level) (Rorippa indica; Dose 3000 g/ha) | weed control effect, Amaranthus retroflexus (activity level) (Amaranthus retroflexus; Dose 3000 g/ha)

O=S(=O)(Oc1cc(C(F)(F)F)nnc1-c1ccc(C(F)(F)F)cc1)c1cccc2ccccc12 [Compound 1-144]
10: weed control effect, Veronica polita (activity level) (Veronica polita; Dose 3000 g/ha) | weed control effect, Chenopodiaceae (activity level) (Chenopodiaceae; Dose 3000 g/ha) | weed control effect, Rorippa indica (activity level) (Rorippa indica; Dose 3000 g/ha) | weed control effect, Amaranthus retroflexus (activity level) (Amaranthus retroflexus; Dose 3000 g/ha)

CN(C)C(=O)Oc1cc(C(F)(F)F)nnc1-c1ccc(F)c(F)c1 [Compound 1-60]
10: weed control effect, Veronica polita (activity level) (Veronica polita; Dose 3000 g/ha) | weed control effect, Chenopodiaceae (activity level) (Chenopodiaceae; Dose 3000 g/ha) | weed control effect, Rorippa indica (activity level) (Rorippa indica; Dose 3000 g/ha) | weed control effect, Amaranthus retroflexus (activity level) (Amaranthus retroflexus; Dose 3000 g/ha)

O=C(CCc1ccccc1)Oc1cc(C(F)(F)F)nnc1-c1ccc(F)cc1 [Compound 1-99]
10: weed control effect, Veronica polita (activity level) (Veronica polita; Dose 3000 g/ha) | weed control effect, Chenopodiaceae (activity level) (Chenopodiaceae; Dose 3000 g/ha) | weed control effect, Rorippa indica (activity level) (Rorippa indica; Dose 3000 g/ha) | weed control effect, Amaranthus retroflexus (activity level) (Amaranthus retroflexus; Dose 3000 g/ha)

CCOC(=S)Oc1cc(C(F)(F)F)nnc1-c1ccc(C)cc1 [Compound 1-155]
10: weed control effect, Veronica polita (activity level) (Veronica polita; Dose 3000 g/ha) | weed control effect, Chenopodiaceae (activity level) (Chenopodiaceae; Dose 3000 g/ha) | weed control effect, Rorippa indica (activity level) (Rorippa indica; Dose 3000 g/ha) | weed control effect, Amaranthus retroflexus (activity level) (Amaranthus retroflexus; Dose 3000 g/ha)

O=C(CSc1ccccc1)Oc1cc(C(F)(F)F)nnc1-c1ccc(F)c(F)c1 [Compound 1-95]
10: weed control effect, Veronica polita (activity level) (Veronica polita; Dose 3000 g/ha) | weed control effect, Chenopodiaceae (activity level) (Chenopodiaceae; Dose 3000 g/ha) | weed control effect, Rorippa indica (activity level) (Rorippa indica; Dose 3000 g/ha) | weed control effect, Amaranthus retroflexus (activity level) (Amaranthus retroflexus; Dose 3000 g/ha)

Oc1cc(C(F)(F)F)nnc1-c1ccc2c(c1)OCO2 [Compound 771]
10: weed control effect (activity level), Veronica polita (Veronica polita; Dose 3000 g/ha) | weed control effect (activity level), Chenopodiaceae (Chenopodiaceae; Dose 3000 g/ha) | weed control effect (activity level), Rorippa indica (Rorippa indica; Dose 3000 g/ha) | weed control effect (activity level), Amaranthus retroflexus (Amaranthus retroflexus; Dose 3000 g/ha)

CCCCCCCCSC(=O)Oc1cc(C(F)(F)F)nnc1-c1ccc(F)cc1 [Compound 1-54]
10: weed control effect, Veronica polita (activity level) (Veronica polita; Dose 3000 g/ha) | weed control effect, Chenopodiaceae (activity level) (Chenopodiaceae; Dose 3000 g/ha) | weed control effect, Rorippa indica (activity level) (Rorippa indica; Dose 3000 g/ha) | weed control effect, Amaranthus retroflexus (activity level) (Amaranthus retroflexus; Dose 3000 g/ha)

Cc1n[nH]c(C)c1-c1nnc(C(F)(F)F)cc1O [Compound 543]
10: weed control effect (activity level), Veronica polita (Veronica polita; Dose 3000 g/ha) | weed control effect (activity level), Chenopodiaceae (Chenopodiaceae; Dose 3000 g/ha) | weed control effect (activity level), Rorippa indica (Rorippa indica; Dose 3000 g/ha) | weed control effect (activity level), Amaranthus retroflexus (Amaranthus retroflexus; Dose 3000 g/ha)

COc1c(C)ccc(F)c1-c1nnc(C(F)(F)F)cc1O [Compound 62]
10: weed control effect (activity level), Veronica polita (Veronica polita; dose 1000 g/ha) | weed control effect (activity level), Chenopodiaceae (Chenopodiaceae; dose 1000 g/ha) | weed control effect (activity level), Rorippa indica (Rorippa indica; dose 1000 g/ha) | weed control effect (activity level), Amaranthus retroflexus (Amaranthus retroflexus; dose 1000 g/ha)

O=C(Oc1cc(C(F)(F)F)nnc1-c1ccc(F)c(F)c1)c1ccco1 [Compound 1-104]
10: weed control effect, Veronica polita (activity level) (Veronica polita; Dose 3000 g/ha) | weed control effect, Chenopodiaceae (activity level) (Chenopodiaceae; Dose 3000 g/ha) | weed control effect, Rorippa indica (activity level) (Rorippa indica; Dose 3000 g/ha) | weed control effect, Amaranthus retroflexus (activity level) (Amaranthus retroflexus; Dose 3000 g/ha)

CCCOc1ccc(-c2nnc(C(F)(F)F)cc2O)cc1 [Compound 83]
10: weed control effect (activity level), Veronica polita (Veronica polita; dose 1000 g/ha) | weed control effect (activity level), Chenopodiaceae (Chenopodiaceae; dose 1000 g/ha) | weed control effect (activity level), Rorippa indica (Rorippa indica; dose 1000 g/ha) | weed control effect (activity level), Amaranthus retroflexus (Amaranthus retroflexus; dose 1000 g/ha)

Oc1cc(C(F)(F)F)nnc1-c1ccc(Br)nc1 [Compound 966]
10: weed control effect (activity level), Veronica polita (Veronica polita; Dose 3000 g/ha) | weed control effect (activity level), Chenopodiaceae (Chenopodiaceae; Dose 3000 g/ha) | weed control effect (activity level), Rorippa indica (Rorippa indica; Dose 3000 g/ha) | weed control effect (activity level), Amaranthus retroflexus (Amaranthus retroflexus; Dose 3000 g/ha)

CCCCC(CCCC)=NOc1cc(C(F)(F)F)nnc1-c1cccc([N+](=O)[O-])c1 [Compound 1-178]
10: weed control effect, Veronica polita (activity level) (Veronica polita; Dose 3000 g/ha) | weed control effect, Chenopodiaceae (activity level) (Chenopodiaceae; Dose 3000 g/ha) | weed control effect, Rorippa indica (activity level) (Rorippa indica; Dose 3000 g/ha) | weed control effect, Amaranthus retroflexus (activity level) (Amaranthus retroflexus; Dose 3000 g/ha)

COc1c(Cl)ccc(-c2nnc(C(F)(F)F)cc2O)c1F [Compound 741]
10: weed control effect (activity level), Veronica polita (Veronica polita; Dose 3000 g/ha) | weed control effect (activity level), Chenopodiaceae (Chenopodiaceae; Dose 3000 g/ha) | weed control effect (activity level), Rorippa indica (Rorippa indica; Dose 3000 g/ha) | weed control effect (activity level), Amaranthus retroflexus (Amaranthus retroflexus; Dose 3000 g/ha)

Oc1cc(C(F)(F)F)nnc1-c1c(F)cccc1Br [Compound 47]
10: weed control effect (activity level), Veronica polita (Veronica polita; dose 1000 g/ha) | weed control effect (activity level), Chenopodiaceae (Chenopodiaceae; dose 1000 g/ha) | weed control effect (activity level), Rorippa indica (Rorippa indica; dose 1000 g/ha) | weed control effect (activity level), Amaranthus retroflexus (Amaranthus retroflexus; dose 1000 g/ha)
